{
  "source": "paper PMC11579512",
  "about": "“Deoxybouvardin-glucoside induces apoptosis in non-small cell lung cancer cells by targeting EGFR/MET and AKT signaling pathway” (EXCLI Journal, 2024)",
  "key": {"HCC827GR cells": {"test_system": "HCC827GR cells", "test": "Cell cycle distribution (Muse, PI), HCC827GR", "format": "cell-based, human", "conditions": "48 h", "procedure": "(§1) HaCaT cells were grown in DMEM, whereas HCC827 and HCC827GR cells were grown in RPMI 1640. All culture media were supplemented with FBS (10 %) and P/S (1 %), and the cells were grown at 37 °C in 5 % CO2.\nCell cycle distribution analysis was performed using a Muse™ Cell Cycle Kit (MCH100106, Merck Millipore, Billerica, MA) based on propidium iodide (PI) staining. The cells were collected, fixed in 70 % ethanol overnight at -20 °C, and then stained with a Muse™ Cell Cycle Reagent at RT for 30 min in the dark. The cell cycle distribution was measured using a Muse™ Cell Analyzer (Merck Millipore)."}, "p-AKT": {"test_system": "p-AKT", "test": "Immunoblot p-AKT with NAC pretreatment, HCC827 and HCC827GR cells", "format": "cell-based, human", "conditions": "for p-AKT protein Ratio: control = 1.00", "procedure": "as §1\n(§2) Cells were lysed in RIPA buffer, and protein concentration was determined using a Bio-Rad DC Protein Assay kit (Bio-Rad, Hercules, CA, USA). Protein samples from the cell lysates were resolved by sodium dodecyl sulfate-polyacrylamide gel electrophoresis and then transferred onto polyvinylidene fluoride membranes. The membranes were blocked with 3 % or 5 % skim milk and then incubated at 4 °C overnight with the indicated primary antibodies, followed by the corresponding horseradish peroxidase-conjugated secondary antibodies at RT for 2 h. Protein bands were visualized using western blotting luminol reagent solution and ImageQuant LAS 500 (GE Healthcare, Uppsala, Sweden). The density of the bands was quantified using ImageJ software (NIH, Bethesda, MD, USA)."}, "CDK6": {"test_system": "CDK6", "test": "Immunoblot CDK6 in HCC827 and HCC827GR cells", "format": "cell-based, human", "conditions": "for CDK6 protein ratio: relative to DBG 0 nM = 1.00", "procedure": "as §1, §2"}, "HCC827 cells": {"test_system": "HCC827 cells", "test": "MTT viability after NAC pretreatment, HCC827", "format": "cell-based, human", "conditions": "for cell viability (relative to untreated = 100.00): HCC827", "procedure": "All culture media were supplemented with FBS (10 %) and P/S (1 %), and the cells were grown at 37 °C in 5 % CO2.\nThe cells were treated with MTT and incubated for 2 h. The supernatants were removed, and the remaining formazan crystals were dissolved in DMSO before absorbance measurement at 570 nm using a Multiscan GO spectrophotometer (Thermo Fisher Scientific, Vantaa, Finland)."}, "CDK2": {"test_system": "CDK2", "test": "Immunoblot CDK2 in HCC827 and HCC827GR cells", "format": "cell-based, human", "conditions": "for CDK2 protein ratio: relative to DBG 0 nM = 1.00", "procedure": "as §1, §2"}, "AKT1": {"molecular_target": "T1, AKT1 (Homo sapiens, UniProt P31749)", "T1 construct": "purchased Promega", "T1 sequence (P31749 whole entry)": "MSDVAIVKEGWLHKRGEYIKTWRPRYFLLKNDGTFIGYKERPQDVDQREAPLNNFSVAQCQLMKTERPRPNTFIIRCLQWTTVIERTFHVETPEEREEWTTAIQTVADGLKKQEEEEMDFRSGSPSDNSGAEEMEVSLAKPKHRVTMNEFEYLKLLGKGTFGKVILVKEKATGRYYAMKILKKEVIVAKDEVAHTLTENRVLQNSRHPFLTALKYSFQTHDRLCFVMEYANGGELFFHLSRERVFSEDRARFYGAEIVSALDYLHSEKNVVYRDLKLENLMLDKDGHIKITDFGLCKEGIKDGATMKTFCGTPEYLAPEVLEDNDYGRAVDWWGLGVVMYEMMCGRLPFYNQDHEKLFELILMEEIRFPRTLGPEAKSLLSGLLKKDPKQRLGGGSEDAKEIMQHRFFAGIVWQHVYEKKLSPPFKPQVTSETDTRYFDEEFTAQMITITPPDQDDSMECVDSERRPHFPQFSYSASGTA", "test": "In vitro ADP-Glo kinase assay, AKT1", "format": "biochemical", "procedure": "Subsequently, each well was added with ADP-Glo reagent and incubated for another 40 min. After completion of the kinase reaction, each well was added with kinase activity detection reagent and then incubated for 30 min. Liquid was dispensed with I.DOT (Dispendix, Stuttgart, Germany). Luminescence was measured on a Centro LB 960 microplate luminometer (Berthold Technologies)."}},
  "data": [
    {"smiles": "COc1ccc(C[C@H]2C(=O)N[C@@H](C)C(=O)N(C)[C@H]3Cc4ccc(cc4)Oc4cc(ccc4O[C@@H]4O[C@H](CO)[C@@H](O)[C@H](O)[C@H]4O)C[C@@H](C(=O)N[C@H](C)C(=O)N[C@@H](C)C(=O)N2C)N(C)C3=O)cc1", "note": "[DBG, deoxybouvardin glucoside]", "values": [
      {"measurement": "G2/M distribution", "setting": "HCC827GR cells; DBG 12 nM, sample 2", "result": 35.10},
      {"measurement": "S distribution", "setting": "HCC827GR cells; DBG 12 nM, sample 2", "result": 8.70},
      {"measurement": "G0/G1 distribution", "setting": "HCC827GR cells; DBG 12 nM, sample 3", "result": 57.10},
      {"measurement": "G2/M distribution", "setting": "HCC827GR cells; DBG 12 nM, sample 3", "result": 34.30},
      {"measurement": "S distribution", "setting": "HCC827GR cells; DBG 12 nM, sample 3", "result": 8.60},
      {"measurement": "increase in proportion of cells at G1 phase", "setting": "HCC827GR cells; concentration not given", "result": 2.36, "unit": "%"},
      {"measurement": "p-AKT protein/actin", "setting": "p-AKT; HCC827, DBG 12 nM, control 1.00", "result": 0.39},
      {"measurement": "p-AKT protein Ratio", "setting": "p-AKT; HCC827, DBG 12 nM", "result": 0.39},
      {"measurement": "p-AKT protein/actin", "setting": "p-AKT; HCC827, NAC 4 mM + DBG 12 nM, control 1.00", "result": 0.42},
      {"measurement": "p-AKT protein Ratio", "setting": "p-AKT; HCC827, NAC 4 mM + DBG 12 nM", "result": 0.42},
      {"measurement": "p-AKT protein/actin", "setting": "p-AKT; HCC827GR, DBG 12 nM, control 1.04", "result": 0.30},
      {"measurement": "p-AKT protein Ratio", "setting": "p-AKT; HCC827GR, DBG 12 nM", "result": 0.29},
      {"measurement": "p-AKT protein/actin", "setting": "p-AKT; HCC827GR, NAC 4 mM + DBG 12 nM, control 1.04", "result": 0.17},
      {"measurement": "p-AKT protein Ratio", "setting": "p-AKT; HCC827GR, NAC 4 mM + DBG 12 nM", "result": 0.16},
      {"measurement": "DBG-decreased phosphorylation of AKT with NAC", "setting": "p-AKT; NAC 4 mM pretreatment, DBG 48 h", "result": "did not change"},
      {"measurement": "level of CDKs (CDK6)", "setting": "CDK6; DBG 3, 6, 12 nM, 48 h", "result": "significantly decreased"},
      {"measurement": "CDK6 protein/actin", "setting": "CDK6; HCC827, DBG 3 nM, DBG 0 nM 0.53", "result": 0.32},
      {"measurement": "CDK6 protein ratio", "setting": "CDK6; HCC827, DBG 3 nM", "result": 0.60},
      {"measurement": "CDK6 protein/actin", "setting": "CDK6; HCC827, DBG 6 nM, DBG 0 nM 0.53", "result": 0.19},
      {"measurement": "CDK6 protein ratio", "setting": "CDK6; HCC827, DBG 6 nM", "result": 0.36},
      {"measurement": "CDK6 protein/actin", "setting": "CDK6; HCC827, DBG 12 nM, DBG 0 nM 0.53", "result": 0.07},
      {"measurement": "CDK6 protein ratio", "setting": "CDK6; HCC827, DBG 12 nM", "result": 0.14},
      {"measurement": "CDK6 protein/actin", "setting": "CDK6; HCC827GR, DBG 3 nM, DBG 0 nM 0.70", "result": 0.55},
      {"measurement": "CDK6 protein ratio", "setting": "CDK6; HCC827GR, DBG 3 nM", "result": 0.79},
      {"measurement": "CDK6 protein/actin", "setting": "CDK6; HCC827GR, DBG 6 nM, DBG 0 nM 0.70", "result": 0.47},
      {"measurement": "CDK6 protein ratio", "setting": "CDK6; HCC827GR, DBG 6 nM", "result": 0.67},
      {"measurement": "CDK6 protein/actin", "setting": "CDK6; HCC827GR, DBG 12 nM, DBG 0 nM 0.70", "result": 0.30},
      {"measurement": "CDK6 protein ratio", "setting": "CDK6; HCC827GR, DBG 12 nM", "result": 0.43},
      {"measurement": "cell viability (relative to untreated = 100.00)", "setting": "HCC827 cells; DBG 12 nM, mean of 3", "result": 45.66},
      {"measurement": "cell viability (relative to untreated = 100.00)", "setting": "HCC827 cells; DBG 12 nM, replicate 1", "result": 44.99},
      {"measurement": "cell viability (relative to untreated = 100.00)", "setting": "HCC827 cells; DBG 12 nM, replicate 2", "result": 46.50},
      {"measurement": "cell viability (relative to untreated = 100.00)", "setting": "HCC827 cells; DBG 12 nM, replicate 3", "result": 45.48},
      {"measurement": "cell viability (relative to untreated = 100.00)", "setting": "HCC827 cells; NAC 4 mM + DBG 12 nM, mean of 3", "result": 94.90},
      {"measurement": "cell viability (relative to untreated = 100.00)", "setting": "HCC827 cells; NAC 4 mM + DBG 12 nM, replicate 1", "result": 97.37},
      {"measurement": "cell viability (relative to untreated = 100.00)", "setting": "HCC827 cells; NAC 4 mM + DBG 12 nM, replicate 2", "result": 92.86},
      {"measurement": "cell viability (relative to untreated = 100.00)", "setting": "HCC827 cells; NAC 4 mM + DBG 12 nM, replicate 3", "result": 94.46},
      {"measurement": "anticancer activity of DBG after NAC pretreatment", "setting": "HCC827 cells; NAC 4 mM, 3 h, DBG 48 h", "result": "decreased"},
      {"measurement": "cytotoxicity after NAC pretreatment", "setting": "HCC827 cells; NAC 4 mM, DBG 12 nM", "result": "a little, if any, cytotoxicity only at 12 nM"},
      {"measurement": "level of CDKs (CDK2)", "setting": "CDK2; DBG 3, 6, 12 nM, 48 h", "result": "significantly decreased"},
      {"measurement": "CDK2 protein/actin", "setting": "CDK2; HCC827, DBG 3 nM, DBG 0 nM 0.56", "result": 0.43},
      {"measurement": "CDK2 protein ratio", "setting": "CDK2; HCC827, DBG 3 nM", "result": 0.77},
      {"measurement": "CDK2 protein/actin", "setting": "CDK2; HCC827, DBG 6 nM, DBG 0 nM 0.56", "result": 0.20},
      {"measurement": "CDK2 protein ratio", "setting": "CDK2; HCC827, DBG 6 nM", "result": 0.36},
      {"measurement": "CDK2 protein/actin", "setting": "CDK2; HCC827, DBG 12 nM, DBG 0 nM 0.56", "result": 0.17},
      {"measurement": "CDK2 protein ratio", "setting": "CDK2; HCC827, DBG 12 nM", "result": 0.30},
      {"measurement": "CDK2 protein/actin", "setting": "CDK2; HCC827GR, DBG 3 nM, DBG 0 nM 0.58", "result": 0.44},
      {"measurement": "CDK2 protein ratio", "setting": "CDK2; HCC827GR, DBG 3 nM", "result": 0.76},
      {"measurement": "CDK2 protein/actin", "setting": "CDK2; HCC827GR, DBG 6 nM, DBG 0 nM 0.58", "result": 0.36},
      {"measurement": "CDK2 protein ratio", "setting": "CDK2; HCC827GR, DBG 6 nM", "result": 0.62},
      {"measurement": "CDK2 protein/actin", "setting": "CDK2; HCC827GR, DBG 12 nM, DBG 0 nM 0.58", "result": 0.25},
      {"measurement": "CDK2 protein ratio", "setting": "CDK2; HCC827GR, DBG 12 nM", "result": 0.44},
      {"measurement": "IC50", "setting": "AKT1; ADP-Glo, AKT1 10 ng, RT, 60 min, luminescence, n=3", "result": 6.86, "unit": "nM"},
      {"measurement": "kinase activity, in words", "setting": "AKT1; DBG 3, 6, 12 nM", "result": "significantly inhibited"}
    ]}
  ]
}
